Assay results published in paper PMC9965018, “Marine-Derived Natural Product HDYL-GQQ-495 Targets P62 to Inhibit Autophagy” (Marine Drugs, 2023).

Biological target: T1, P62 (P62/SQSTM1) (Homo sapiens, UniProt Q13501)
T1 construct: MBP-P62 (purified recombinant)
Test: microscale thermophoresis (MST) with labelled MBP-P62, MBP as negative control; also induces polymerization of purified P62
Assay type: binding

T1 sequence (Q13501 2-440): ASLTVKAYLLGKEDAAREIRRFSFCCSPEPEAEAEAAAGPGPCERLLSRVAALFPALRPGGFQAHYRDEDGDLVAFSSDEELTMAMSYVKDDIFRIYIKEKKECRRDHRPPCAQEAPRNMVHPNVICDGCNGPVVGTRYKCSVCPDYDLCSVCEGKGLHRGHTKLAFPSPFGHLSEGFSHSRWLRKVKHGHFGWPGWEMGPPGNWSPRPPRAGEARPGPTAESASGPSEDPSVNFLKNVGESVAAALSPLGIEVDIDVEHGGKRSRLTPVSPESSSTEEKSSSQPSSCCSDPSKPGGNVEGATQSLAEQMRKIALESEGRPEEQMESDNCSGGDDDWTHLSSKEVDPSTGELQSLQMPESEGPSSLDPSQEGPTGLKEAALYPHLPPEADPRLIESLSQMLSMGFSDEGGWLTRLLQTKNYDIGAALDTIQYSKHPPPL

SMILES: O=C(c1ccc(OCCN2CCCCC2)cc1)c1c(O)nc2ccc(O)c3c2c1-c1cccc(O)c1C3=O [HDYL-GQQ-495]
- Kd: 11.2 ± 4.07 µM
